According to ChEMBL document CHEMBL1909046, “DrugMatrix in vitro pharmacology data”:

Columns and labels:
[1] = DRUGMATRIX: Calcium Channel Type L, Dihydropyridine radioligand binding (ligand: [3H] Nitrendipine); type: cell membranes, Rattus norvegicus, Wistar, Cerebral cortex, Membrane; details: Not Active = under 50% inhibition at 10 µM
[2] = molecular target: Tyrosine-protein kinase Lck (Homo sapiens, UniProt P06239); experiment: DRUGMATRIX: Protein Tyrosine Kinase, LCK enzyme inhibition (substrate: Poly(Glu:Tyr)); type: cell-based, Insect cells; details: insect cells; Not Active = under 50% inhibition at 10 µM
Caspase-1 = molecular target: T1, Caspase-1 (Homo sapiens, UniProt P29466); design: species or system Escherichia coli;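 further: Caspase-1 enzyme inhibition assay with a peptide substrate; in other assays of this panel Not Active means under 50% inhibition at 10 µM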
T1 sequence (P29466 whole entry): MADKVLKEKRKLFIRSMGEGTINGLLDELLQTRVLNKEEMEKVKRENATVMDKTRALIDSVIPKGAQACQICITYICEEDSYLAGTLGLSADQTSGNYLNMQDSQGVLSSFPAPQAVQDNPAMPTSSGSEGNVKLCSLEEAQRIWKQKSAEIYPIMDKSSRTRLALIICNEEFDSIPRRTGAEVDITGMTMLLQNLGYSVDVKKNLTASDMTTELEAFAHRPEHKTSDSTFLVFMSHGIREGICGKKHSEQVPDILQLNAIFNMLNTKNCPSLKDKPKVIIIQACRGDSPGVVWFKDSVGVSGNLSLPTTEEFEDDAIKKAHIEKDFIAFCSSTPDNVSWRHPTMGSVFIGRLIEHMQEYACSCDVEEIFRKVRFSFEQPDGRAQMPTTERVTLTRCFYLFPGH

Mu-type opioid receptor = Mu-type opioid receptor (Homo sapiens, UniProt P35372); experiment: DRUGMATRIX: Opiate mu (OP3, MOP) radioligand binding (ligand: [3H] Diprenorphine); type: cell membranes, CHO-K1, Membrane; details: cho-k1; Not Active = under 50% inhibition at 10 µM
[3] = DRUGMATRIX: GABAA, Flunitrazepam, Central radioligand binding (ligand: [3H] Flunitrazepam); type: cell membranes, Rattus norvegicus, Wistar, Brain, Membrane; details: Not Active = under 50% inhibition at 10 µM

Chain of Mu-type opioid receptor (P35372 whole entry): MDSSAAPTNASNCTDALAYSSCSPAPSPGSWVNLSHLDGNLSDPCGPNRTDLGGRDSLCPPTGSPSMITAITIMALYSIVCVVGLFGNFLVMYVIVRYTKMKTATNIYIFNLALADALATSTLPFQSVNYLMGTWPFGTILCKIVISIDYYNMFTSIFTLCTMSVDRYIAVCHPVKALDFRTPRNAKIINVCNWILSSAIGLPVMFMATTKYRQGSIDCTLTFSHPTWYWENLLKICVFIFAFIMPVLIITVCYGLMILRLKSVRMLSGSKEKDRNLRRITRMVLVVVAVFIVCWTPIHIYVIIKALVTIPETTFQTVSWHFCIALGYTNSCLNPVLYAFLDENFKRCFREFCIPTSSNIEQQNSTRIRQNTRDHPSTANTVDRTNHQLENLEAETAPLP
Chain of Tyrosine-protein kinase Lck (P06239 whole entry): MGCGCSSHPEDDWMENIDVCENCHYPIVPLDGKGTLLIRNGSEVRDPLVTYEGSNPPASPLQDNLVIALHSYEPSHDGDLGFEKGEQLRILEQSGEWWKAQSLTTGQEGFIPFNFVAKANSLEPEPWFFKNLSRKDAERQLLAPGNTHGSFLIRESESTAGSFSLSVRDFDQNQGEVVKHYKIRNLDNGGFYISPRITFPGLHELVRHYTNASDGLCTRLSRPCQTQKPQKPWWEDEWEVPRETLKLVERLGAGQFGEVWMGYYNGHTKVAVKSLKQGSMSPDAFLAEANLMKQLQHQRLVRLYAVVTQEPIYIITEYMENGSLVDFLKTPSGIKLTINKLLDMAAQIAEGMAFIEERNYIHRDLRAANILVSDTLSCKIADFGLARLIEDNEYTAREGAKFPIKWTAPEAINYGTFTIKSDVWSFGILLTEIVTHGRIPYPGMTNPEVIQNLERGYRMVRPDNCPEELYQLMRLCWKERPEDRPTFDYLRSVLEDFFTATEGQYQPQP

CC[C@]1(O)C[C@H]2CN(CCc3c([nH]c4ccccc34)[C@@](C(=O)OC)(c3cc4c(cc3OC)N(C=O)[C@H]3[C@@](O)(C(=O)OC)[C@H](OC(C)=O)[C@]5(CC)C=CCN6CC[C@]43[C@@H]65)C2)C1 [VINCRISTINE]
Not Active: IC50 [1] | Ki [1] | IC50 [2] | IC50 (Caspase-1) | IC50 (Mu-type opioid receptor) | IC50 [3] | Ki [3]

CCCOc1ccccc1-c1nc2nn[nH]c2c(=O)[nH]1 [ZAPRINAST]
Not Active: IC50 [1] | Ki [1] | IC50 [2] | IC50 (Caspase-1) | IC50 (Mu-type opioid receptor) | IC50 [3] | Ki [3]
